Reference: patent publication US9670193B2 (Novartis AG, priority 2011, dated 2017)

Key:
Format in all cases: biochemical
[1] = molecular target: T1, Human recombinant HDAC4 (Homo sapiens (Human), UniProt P56524); experiment: Earlier version of HDAC4 assay; conditions: 10 μM substrate, test concentrations 0.003 μM to 100 μM
Protocol: Description of Earlier Version of HDAC4 Assay
Human recombinant HDAC4 was expressed in full length form (aa 2-1084) in Sf9 insect cells (obtained from ATCC) using baculovirus generated with Bac-to-Bac system (Invitrogen). Test compounds were serially diluted to reach final test concentrations from 0.003 μM to 100 μM. HDAC4 and test compounds were incubated in 25 mM Tris buffer pH 8.0 containing 137 mM NaCl, 2.7 mM KCl, 1 mM MgCl2 and 0.05% (w/v) bovine serum albumine for 2 hours at room temperature in presence of 10 μM of acetyl-Gly-Ala-Lys(ε-trifluoroacetyl)-AMC (AMC=7-amino-4-methyl coumarin) in a final volume of 200 μl. Control wells with HDAC4 only (positive control) and without HDAC4 (negative control) were included on the microplate. Bovine trypsin (10 μl of a 0.4 mg/ml solution) was added and the plate incubated for additional 15 minutes at room temperature. The plate was placed in a fluorescence microplate reader, and read at an excitation wavelength of 360 nm and an emission wavelength of 450 nm with a cut-off filter of 435 nm. Fluorescence values for all wells containing HDAC4 (positive control and wells with test compound) were corrected by subtracting negative control fluorescence values, and IC50 values were calculated by fitting the dose-response curves to a 4-parameter logistic function.

[2] = molecular target: T1, Human recombinant HDAC4; experiment: HDAC4 assay (Test 1), fluorescence, acetyl-Gly-Ala-Lys(ε-trifluoroacetyl)-AMC substrate; conditions: 5 μM substrate, 2 hours at room temperature
Protocol: Test 1: HDAC4 Assay Description
(§1) Human recombinant HDAC4 was expressed in full length form (aa 2-1084) in Sf9 insect cells (obtained from ATCC) using baculovirus generated with Bac-to-Bac system (Invitrogen). Test compounds were serially diluted to reach final test concentrations from 0.000128 μM to 10 μM. HDAC4 and test compounds were incubated in 25 mM Tris buffer pH 8.0 containing 137 mM NaCl, 2.7 mM KCl, 1 mM MgCl2, 0.05% (w/v) bovine serum albumine and 0.005% (v/v) Triton-X-100 for 2 hours at room temperature in presence of 5 μM of acetyl-Gly-Ala-Lys(ε-trifluoroacetyl)-AMC (AMC=7-amino-4-methyl coumarin) in a final volume of 9 μl. Control wells with HDAC4 only (positive control) and without HDAC4 (negative control) were included on the microplate. Bovine trypsin (4.5 μl of a 300 nM solution) was added and the plate incubated for additional 15 minutes at room temperature. The plate was placed in a fluorescence microplate reader, and read at an excitation wavelength of 360 nm and an emission wavelength of 450 nm with a 10 nm bandpath. Fluorescence values for all wells containing HDAC4 (positive control and wells with test compound) were corrected by subtracting negative control fluorescence values, and IC50 values were calculated by fitting the dose-response curves to a 4-parameter logistic function.

[3] = molecular target: Human recombinant full length HDAC1 (Homo sapiens (Human), UniProt Q13547); experiment: HDAC1 assay (Test 2), acetyl-Gly-Ala-Lys(acetyl)-AMC substrate; conditions: 5 μM substrate, 2 hours at room temperature
Chain of Human recombinant full length HDAC1 (Q13547 whole entry): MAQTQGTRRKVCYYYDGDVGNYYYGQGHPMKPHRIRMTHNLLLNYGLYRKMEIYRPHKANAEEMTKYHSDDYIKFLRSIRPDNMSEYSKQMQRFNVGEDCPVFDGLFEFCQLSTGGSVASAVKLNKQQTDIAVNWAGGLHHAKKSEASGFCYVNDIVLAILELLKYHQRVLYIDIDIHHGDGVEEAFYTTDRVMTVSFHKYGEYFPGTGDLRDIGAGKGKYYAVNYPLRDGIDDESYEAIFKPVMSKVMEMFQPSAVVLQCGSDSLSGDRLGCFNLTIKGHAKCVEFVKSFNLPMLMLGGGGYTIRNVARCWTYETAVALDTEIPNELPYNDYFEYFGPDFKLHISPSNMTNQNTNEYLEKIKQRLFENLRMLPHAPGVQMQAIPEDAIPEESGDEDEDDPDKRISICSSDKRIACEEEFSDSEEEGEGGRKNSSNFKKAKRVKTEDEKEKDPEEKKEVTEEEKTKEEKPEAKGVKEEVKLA
Protocol: as §1
Test 2: HDAC1 Assay Description
A similar assay procedure as described in Test 1 was used for HDAC1. Human recombinant full length HDAC1 expressed in a baculovirus expression system was purchased from BPS BioSciences (San Diego, Calif., U.S.A.). The substrate used in the […] assay was 5 μM of acetyl-Gly-Ala-Lys(acetyl)-AMC.

[4] = molecular target: Human recombinant full length HDAC6 (Homo sapiens (Human), UniProt Q9UBN7); experiment: HDAC6 assay (Test 3), acetyl-Gly-Ala-Lys(acetyl)-AMC substrate; conditions: 5 μM substrate, 2 hours at room temperature
Chain of Human recombinant full length HDAC6 (Q9UBN7 whole entry): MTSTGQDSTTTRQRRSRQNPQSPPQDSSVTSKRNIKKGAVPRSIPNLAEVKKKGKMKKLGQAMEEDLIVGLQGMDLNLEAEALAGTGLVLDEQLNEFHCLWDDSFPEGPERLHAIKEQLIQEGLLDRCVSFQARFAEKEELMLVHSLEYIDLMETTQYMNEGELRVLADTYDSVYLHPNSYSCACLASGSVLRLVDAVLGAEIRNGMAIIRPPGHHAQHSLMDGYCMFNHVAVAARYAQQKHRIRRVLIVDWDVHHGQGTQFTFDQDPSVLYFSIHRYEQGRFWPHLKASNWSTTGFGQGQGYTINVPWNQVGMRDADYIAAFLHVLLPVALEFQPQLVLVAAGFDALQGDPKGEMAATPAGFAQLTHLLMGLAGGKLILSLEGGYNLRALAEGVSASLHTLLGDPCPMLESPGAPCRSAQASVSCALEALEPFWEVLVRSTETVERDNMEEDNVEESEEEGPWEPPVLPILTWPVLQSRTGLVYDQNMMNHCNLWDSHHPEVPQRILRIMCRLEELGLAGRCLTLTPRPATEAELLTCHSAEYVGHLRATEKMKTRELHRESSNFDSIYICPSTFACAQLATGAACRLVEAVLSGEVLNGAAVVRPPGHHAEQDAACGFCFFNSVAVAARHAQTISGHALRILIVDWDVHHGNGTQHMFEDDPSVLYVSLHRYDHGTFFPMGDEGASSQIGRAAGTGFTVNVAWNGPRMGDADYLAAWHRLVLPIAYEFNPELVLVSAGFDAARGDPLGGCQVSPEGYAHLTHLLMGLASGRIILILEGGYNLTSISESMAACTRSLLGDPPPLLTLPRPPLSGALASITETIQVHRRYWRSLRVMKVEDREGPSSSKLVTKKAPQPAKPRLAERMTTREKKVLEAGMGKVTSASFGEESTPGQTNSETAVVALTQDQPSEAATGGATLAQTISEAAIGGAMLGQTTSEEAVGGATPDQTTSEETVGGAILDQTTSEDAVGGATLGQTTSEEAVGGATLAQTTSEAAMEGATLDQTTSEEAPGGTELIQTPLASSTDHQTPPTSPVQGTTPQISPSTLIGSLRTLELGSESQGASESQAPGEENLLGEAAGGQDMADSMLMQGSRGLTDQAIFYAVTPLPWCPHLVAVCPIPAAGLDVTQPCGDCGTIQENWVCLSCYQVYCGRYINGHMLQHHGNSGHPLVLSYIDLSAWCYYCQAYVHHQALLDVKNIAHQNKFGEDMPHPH
Protocol: as §1
Test 3: HDAC6 Assay Description
A similar assay procedure as described in Test 1 was used for HDAC6. Human recombinant full length HDAC6 expressed in a baculovirus expression system was purchased from BPS BioSciences (San Diego, Calif., U.S.A.). The substrate used in the […] assay was 5 μM of acetyl-Gly-Ala-Lys (acetyl)-AMC.

T1 sequence (P56524 2-1084): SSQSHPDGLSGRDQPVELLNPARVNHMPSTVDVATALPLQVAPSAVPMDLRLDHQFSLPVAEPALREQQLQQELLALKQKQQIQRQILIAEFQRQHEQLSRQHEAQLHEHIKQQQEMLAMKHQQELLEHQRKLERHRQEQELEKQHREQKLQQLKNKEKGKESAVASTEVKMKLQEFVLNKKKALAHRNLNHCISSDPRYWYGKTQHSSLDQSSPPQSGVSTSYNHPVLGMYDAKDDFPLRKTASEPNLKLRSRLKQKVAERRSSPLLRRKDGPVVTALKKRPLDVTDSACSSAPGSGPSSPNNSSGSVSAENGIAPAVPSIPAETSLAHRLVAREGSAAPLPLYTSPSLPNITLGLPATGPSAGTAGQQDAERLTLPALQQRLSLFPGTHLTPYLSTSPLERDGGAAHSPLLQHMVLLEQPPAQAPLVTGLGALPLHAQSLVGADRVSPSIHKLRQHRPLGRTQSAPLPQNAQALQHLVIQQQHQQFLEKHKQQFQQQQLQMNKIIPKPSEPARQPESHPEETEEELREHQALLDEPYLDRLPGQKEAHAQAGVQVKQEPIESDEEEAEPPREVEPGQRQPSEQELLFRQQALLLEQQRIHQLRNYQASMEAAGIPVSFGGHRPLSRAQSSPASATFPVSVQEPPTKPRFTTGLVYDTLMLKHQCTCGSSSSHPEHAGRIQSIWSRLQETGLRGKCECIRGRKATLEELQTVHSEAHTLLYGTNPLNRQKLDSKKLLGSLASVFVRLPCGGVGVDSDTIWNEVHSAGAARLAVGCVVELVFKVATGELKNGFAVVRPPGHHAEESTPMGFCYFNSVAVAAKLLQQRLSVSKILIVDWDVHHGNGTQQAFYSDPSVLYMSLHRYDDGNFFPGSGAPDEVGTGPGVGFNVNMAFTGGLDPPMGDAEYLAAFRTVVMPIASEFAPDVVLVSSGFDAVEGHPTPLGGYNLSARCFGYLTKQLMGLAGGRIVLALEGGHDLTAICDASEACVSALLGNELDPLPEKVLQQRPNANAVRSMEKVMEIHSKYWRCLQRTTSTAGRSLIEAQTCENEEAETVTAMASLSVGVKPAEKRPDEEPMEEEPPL

Row | Compound | IC50 [1] [µM] | IC50 [2] [µM] | IC50 [3] [µM] | IC50 [4] [µM]
1 | C[C@@H](NC(=O)c1cnc(-c2noc(C(F)(F)F)n2)nc1)c1ccccc1 [(R)—N-(1-phenylethyl)-2-(5-(trifluoromethyl)-1,2,4-oxadiazol-3-yl)pyrimidine-5-carboxamide] | > 30 | – | – | –
2 | FC(F)(F)c1nc(-c2ccc(NCc3cccnc3)nc2)no1 [Example 30, N-(pyridin-3-ylmethyl)-5-(5-(trifluoromethyl)-1,2,4-oxadiazol-3-yl)pyridin-2-amine] | – | 0.079 | 6.1 | 1.8
3 | Cc1ccc(CNc2ccc(-c3noc(C(F)(F)F)n3)cn2)cn1 [Example 32, N-((6-methylpyridin-3-yl)methyl)-5-(5-(trifluoromethyl)-1,2,4-oxadiazol-3-yl)pyridin-2-amine] | – | 0.063 | 2.4 | 0.77
4 | FC(F)(F)c1nc(-c2cnc(NCc3ccccc3)c(Cl)c2)no1 [Example 33, N-benzyl-3-chloro-5-(5-(trifluoromethyl)-1,2,4-oxadiazol-3-yl)pyridin-2-amine] | – | 0.093 | > 10 | > 10
5 | Cc1ccc(CNc2ncc(-c3noc(C(F)(F)F)n3)cc2Cl)cn1 [Example 38, 3-Chloro-N-((6-methylpyridin-3-yl)methyl)-5-(5-(trifluoromethyl)-1,2,4-oxadiazol-3-yl)pyridin-2-amine] | – | 0.021 | 1.4 | 1.55
6 | FC(F)(F)c1nc(-c2ccc(NCc3ccccc3)nn2)no1 [Example 40, N-benzyl-6-(5-(trifluoromethyl)-1,2,4-oxadiazol-3-yl)pyridazin-3-amine] | – | 0.2 | 7.9 | 0.84
7 | C[C@H](Nc1cnc(-c2noc(C(F)(F)F)n2)nc1)c1ccccc1 [Example 42, (S)—N-(1-Phenylethyl)-2-(5-(trifluoromethyl)-1,2,4-oxadiazol-3-yl)pyrimidin-5-amine] | – | 5 | > 10 | 1.9
8 | FC(F)(F)c1nc(-c2ncc(NCc3ccncc3)cn2)no1 [Example 43, N-(Pyridin-4-ylmethyl)-2-(5-(trifluoromethyl)-1,2,4-oxadiazol-3-yl)pyrimidin-5-amine] | – | 0.19 | 4.7 | 1.1
9 | C[C@H](CN(C)Cc1ccccc1)NC(=O)c1cnc(-c2noc(C(F)(F)F)n2)nc1 [Example 46] | – | 0.066 | > 10 | > 10
10 | O=C(NCc1ccncc1)c1cnc(-c2noc(C(F)(F)F)n2)nc1 [N-(pyridin-4-ylmethyl)-2-(5-(trifluoromethyl)-1,2,4-oxadiazol-3-yl)pyrimidine-5-carboxamide] | > 30 | – | – | –

More lines, in order of falling IC50 [2], values ahead:

Row | IC50 [1] [µM] | IC50 [2] [µM] | IC50 [3] [µM] | IC50 [4] [µM] | Compound
11 | – | 0.065 | 3.2 | 0.61 | C[C@@H](Nc1ccc(-c2noc(C(F)(F)F)n2)nn1)c1ccncc1 [Example 45, (R)—N-(1-(Pyridin-4-yl)ethyl)-6-(5-(trifluoromethyl)-1,2,4-oxadiazol-3-yl)pyridazin-3-amine]
12 | – | 0.06 | 4 | 1.3 | C[C@@H](Nc1cnc(-c2noc(C(F)(F)F)n2)nc1)c1ccccc1 [Example 41, (R)—N-(1-Phenylethyl)-2-(5-(trifluoromethyl)-1,2,4-oxadiazol-3-yl)pyrimidin-5-amine]
13 | – | 0.047 | 6.3 | 4.5 | C[C@@H](Nc1ncc(-c2noc(C(F)(F)F)n2)cc1Cl)c1ccccc1 [Example 34, (R)-3-chloro-N-(1-phenylethyl)-5-(5-(trifluoromethyl)-1,2,4-oxadiazol-3-yl)pyridin-2-amine]
14 | – | 0.041 | 4.5 | 1.6 | FC(F)(F)c1nc(-c2ccc(NCc3ccncc3)nc2)no1 [Example 31, N-(pyridin-4-ylmethyl)-5-(5-(trifluoromethyl)-1,2,4-oxadiazol-3-yl)pyridin-2-amine]
15 | – | 0.037 | 2.5 | 1.9 | FC(F)(F)c1nc(-c2cnc(NCc3ccccn3)c(Cl)c2)no1 [Example 39, 3-chloro-N-(pyridin-2-ylmethyl)-5-(5-(trifluoromethyl)-1,2,4-oxadiazol-3-yl)pyridin-2-amine]
16 | – | 0.029 | 2.7 | 1.03 | C[C@@H](Nc1ccc(-c2noc(C(F)(F)F)n2)cn1)c1ccncc1 [Example 44]
17 | – | 0.019 | 1.2 | 2 | FC(F)(F)c1nc(-c2cnc(NCc3cccnc3)c(Cl)c2)no1 [Example 37, 3-chloro-N-(pyridin-3-ylmethyl)-5-(5-(trifluoromethyl)-1,2,4-oxadiazol-3-yl)pyridin-2-amine]
18 | – | 0.011 | 1.1 | 1.8 | FC(F)(F)c1nc(-c2cnc(NCc3ccncc3)c(Cl)c2)no1 [Example 35, 3-chloro-N-(pyridin-4-ylmethyl)-5-(5-(trifluoromethyl)-1,2,4-oxadiazol-3-yl)pyridin-2-amine]
19 | – | 0.0064 | 0.86 | 1.1 | CC(Nc1ncc(-c2noc(C(F)(F)F)n2)cc1Cl)c1ccncc1 (centres unmarked) [Example 36, 3-chloro-N-(1-(pyridin-4-yl)ethyl)-5-(5-(trifluoromethyl)-1,2,4-oxadiazol-3-yl)pyridin-2-amine]
